Results from article PMC10794144, “A novel antibiotic class targeting the lipopolysaccharide transporter” (Nature, 2024).
Converted amounts (≈) assume the structure as drawn.

What was measured:
E. coli ATCC 25922 = assay: microbe, parasite or virus in culture; details: for RO7223280 MIC 100%: E. coli ATCC 25922, read at 100%
Method in brief: (§1)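 Values come from CLSI-guided (M07, M100) broth microdilution in CAMHB. Endpoint: lowest concentration halting growth, judged by naked eye or by OD600 plateau.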

A. baumannii = assay: microbe, parasite or virus in culture; details: for RO7223280 MIC 80%: read at 80%; for RO7223280 MIC 100%: read at 100%
Method in brief: as §1

S. aureus ATCC 29213 = assay: organism not typed; details: for RO7223280 MIC 100%: S. aureus ATCC 29213, read at 100%
Method in brief: as §1

[1] = A. baumannii ATCC 17978, Study LGC308175
[2] = A. baumannii ATCC 19606, Study LGC296813
[3] = A. baumannii ATCC 19606, Study LGC299544
[4] = A. baumannii ATCC 19606, Study LGC308175
[5] = A. baumannii ROB08701, Study LGC296813
[6] = A. baumannii ROB08701, Study LGC299544
[7] = A. baumannii ROB08701, Study LGC308175
[8] = A. baumannii ROB08702, Study LGC296813
[9] = A. baumannii ROB08702, Study LGC299544
[10] = A. baumannii ROB08702, Study LGC308175
[11] = A. baumannii ROB08703, Study LGC296813
[12] = A. baumannii ROB08703, Study LGC299544
[13] = A. baumannii ROB08703, Study LGC308175
[14] = A. baumannii ROB08704, Study LGC296813
[15] = A. baumannii ROB08704, Study LGC299544
[16] = A. baumannii ROB08704, Study LGC308175
[17] = A. baumannii ROB08705, Study LGC296813
[18] = A. baumannii ROB08705, Study LGC299544
[19] = A. baumannii ROB08705, Study LGC308175
[20] = A. baumannii ROB08706, Study LGC296813
[21] = A. baumannii ROB08706, Study LGC299544
[22] = A. baumannii ROB08706, Study LGC308175
[23] = A. baumannii ROB08707, Study LGC296813
[24] = A. baumannii ROB08707, Study LGC299544
[25] = A. baumannii ROB08707, Study LGC308175
[26] = A. baumannii ROB08708, Study LGC296813
[27] = A. baumannii ROB08708, Study LGC299544
[28] = A. baumannii ROB08708, Study LGC308175
[29] = A. baumannii ROB08709, Study LGC296813
[30] = A. baumannii ROB08709, Study LGC299544
[31] = A. baumannii ROB08709, Study LGC308175
[32] = A. baumannii ROB08710, Study LGC296813
[33] = A. baumannii ROB08710, Study LGC299544
[34] = A. baumannii ROB08710, Study LGC308175

## CN1C(=O)[C@H](CCCCN)NC(=O)[C@H](CCCN)NCc2cccnc2Sc2cccc(-c3ccc(C(=O)O)cc3)c2CNC(=O)[C@@H]1Cc1c[nH]c2ccccc12 [zosurabalpin]
E. coli ATCC 25922; Study LGC296813
  RO7223280 MIC 100%: >64 µg/mL
E. coli ATCC 25922; Study LGC299544
  RO7223280 MIC 100%: >64 µg/mL
E. coli ATCC 25922; Study LGC308175
  RO7223280 MIC 100%: >64 µg/mL
E. coli ATCC 25922; Escherichia coli, ATCC25922
  MIC: > 64 µg/mL
A. baumannii; 10 MDR isolates, CAMHB, MCPs read at 80% growth inhibition
  MIC range: 0.12 to 1 µg/mL
A. baumannii; [1]
  RO7223280 MIC 80%: ≤0.06 µg/mL
  RO7223280 MIC 100%: 0.12 µg/mL
A. baumannii; [2]
  RO7223280 MIC 80%: 0.25 µg/mL
  RO7223280 MIC 100%: 0.25 µg/mL
A. baumannii; [3]
  RO7223280 MIC 80%: 0.25 µg/mL
  RO7223280 MIC 100%: 0.25 µg/mL
A. baumannii; [4]
  RO7223280 MIC 80%: 0.25 µg/mL
  RO7223280 MIC 100%: 0.25 µg/mL
A. baumannii; [5]
  RO7223280 MIC 80%: 0.25 µg/mL
  RO7223280 MIC 100%: 0.25 µg/mL
A. baumannii; [6]
  RO7223280 MIC 80%: 0.12 µg/mL
  RO7223280 MIC 100%: 0.5 µg/mL
A. baumannii; [7]
  RO7223280 MIC 80%: 0.25 µg/mL
  RO7223280 MIC 100%: 0.25 µg/mL
A. baumannii; [8]
  RO7223280 MIC 80%: 0.25 µg/mL
  RO7223280 MIC 100%: 0.25 µg/mL
A. baumannii; [9]
  RO7223280 MIC 80%: 0.25 µg/mL
  RO7223280 MIC 100%: >64 µg/mL
A. baumannii; [10]
  RO7223280 MIC 80%: 0.25 µg/mL
  RO7223280 MIC 100%: >64 µg/mL
A. baumannii; [11]
  RO7223280 MIC 80%: 0.25 µg/mL
  RO7223280 MIC 100%: 0.5 µg/mL
A. baumannii; [12]
  RO7223280 MIC 80%: 0.25 µg/mL
  RO7223280 MIC 100%: 0.5 µg/mL
A. baumannii; [13]
  RO7223280 MIC 80%: 0.5 µg/mL
  RO7223280 MIC 100%: 0.5 µg/mL
A. baumannii; [14]
  RO7223280 MIC 80%: 0.25 µg/mL
  RO7223280 MIC 100%: 0.5 µg/mL
A. baumannii; [15]
  RO7223280 MIC 80%: 0.25 µg/mL
  RO7223280 MIC 100%: 1 µg/mL
A. baumannii; [16]
  RO7223280 MIC 80%: 0.5 µg/mL
  RO7223280 MIC 100%: 0.5 µg/mL
A. baumannii; [17]
  RO7223280 MIC 80%: 0.25 µg/mL
  RO7223280 MIC 100%: 0.25 µg/mL
A. baumannii; [18]
  RO7223280 MIC 80%: 0.12 µg/mL
  RO7223280 MIC 100%: 0.12 µg/mL
A. baumannii; [19]
  RO7223280 MIC 80%: ≤0.06 µg/mL
  RO7223280 MIC 100%: 0.12 µg/mL
A. baumannii; [20]
  RO7223280 MIC 80%: 1 µg/mL
  RO7223280 MIC 100%: 1 µg/mL
A. baumannii; [21]
  RO7223280 MIC 80%: 1 µg/mL
  RO7223280 MIC 100%: >64 µg/mL
A. baumannii; [22]
  RO7223280 MIC 80%: 2 µg/mL
  RO7223280 MIC 100%: >64 µg/mL
A. baumannii; [23]
  RO7223280 MIC 80%: 0.25 µg/mL
  RO7223280 MIC 100%: 0.25 µg/mL
A. baumannii; [24]
  RO7223280 MIC 80%: 0.12 µg/mL
  RO7223280 MIC 100%: 0.12 µg/mL
A. baumannii; [25]
  RO7223280 MIC 80%: 0.12 µg/mL
  RO7223280 MIC 100%: 0.12 µg/mL
A. baumannii; [26]
  RO7223280 MIC 80%: 0.25 µg/mL
  RO7223280 MIC 100%: 0.25 µg/mL
A. baumannii; [27]
  RO7223280 MIC 80%: 0.12 µg/mL
  RO7223280 MIC 100%: >64 µg/mL
A. baumannii; [28]
  RO7223280 MIC 80%: 0.12 µg/mL
  RO7223280 MIC 100%: >64 µg/mL
A. baumannii; [29]
  RO7223280 MIC 80%: 0.25 µg/mL
  RO7223280 MIC 100%: 0.25 µg/mL
A. baumannii; [30]
  RO7223280 MIC 80%: 0.25 µg/mL
  RO7223280 MIC 100%: >64 µg/mL
A. baumannii; [31]
  RO7223280 MIC 80%: 0.25 µg/mL
  RO7223280 MIC 100%: >64 µg/mL
A. baumannii; [32]
  RO7223280 MIC 80%: 0.25 µg/mL
  RO7223280 MIC 100%: >64 µg/mL
A. baumannii; [33]
  RO7223280 MIC 80%: 0.25 µg/mL
  RO7223280 MIC 100%: >64 µg/mL
A. baumannii; [34]
  RO7223280 MIC 80%: 0.25 µg/mL
  RO7223280 MIC 100%: >64 µg/mL
A. baumannii; Acinetobacter baumannii, 10 MDR isolates, CAMHB, MCPs read at 80% growth inhibition
  MIC90: 0.25 µg/mL (≈ 0.316 µM)
A. baumannii; Acinetobacter baumannii, ACC00445, CAMHB, MCPs read at 80% inhibition
  MIC: 0.12 µg/mL (≈ 0.152 µM)
A. baumannii; Acinetobacter baumannii, ACC00535, CAMHB, MCPs read at 80% inhibition
  MIC: 0.12 µg/mL (≈ 0.152 µM)
A. baumannii; Acinetobacter baumannii, ACC01073, CAMHB, MCPs read at 80% inhibition
  MIC: 1 µg/mL (≈ 1.26 µM)
A. baumannii; Acinetobacter baumannii, ACC01077, CAMHB, MCPs read at 80% inhibition
  MIC: 0.12 µg/mL (≈ 0.152 µM)
A. baumannii; Acinetobacter baumannii, ACC01085 / AR0307, CAMHB, MCPs read at 80% inhibition
  MIC: 0.5 µg/mL (≈ 0.632 µM)
A. baumannii; Acinetobacter baumannii, ATCC17978, ATCC 17978, CAMHB, MCPs read at 80% inhibition
  MIC: ≤ 0.06 µg/mL
A. baumannii; Acinetobacter baumannii, ATCC17978, ATCC 17978, CAMHB, one replicate, MCPs read at 80% growth inhibition
  MIC: ≤ 0.06 µg/mL
A. baumannii; Acinetobacter baumannii, ATCC19606, ATCC 19606, CAMHB, MCPs read at 80% growth inhibition
  MIC: 0.25 µg/mL (≈ 0.316 µM)
A. baumannii; Acinetobacter baumannii, ATCC19606, ATCC 19606, CAMHB, MCPs read at 80% inhibition
  MIC: 0.12 µg/mL (≈ 0.152 µM)
A. baumannii; Acinetobacter baumannii, ATCCBAA747, ATCC BAA-747, CAMHB, MCPs read at 80% inhibition
  MIC: ≤ 0.06 µg/mL
A. baumannii; Acinetobacter baumannii, ROB08701, CAMHB, MCPs read at 80% inhibition
  MIC: 0.25 µg/mL (≈ 0.316 µM)
A. baumannii; Acinetobacter baumannii, ROB08702, CAMHB, MCPs read at 80% inhibition
  MIC: 0.12 µg/mL (≈ 0.152 µM)
A. baumannii; Acinetobacter baumannii, ROB08703, CAMHB, MCPs read at 80% inhibition
  MIC: 0.5 µg/mL (≈ 0.632 µM)
A. baumannii; Acinetobacter baumannii, ROB08704, CAMHB, MCPs read at 80% inhibition
  MIC: 0.25 µg/mL (≈ 0.316 µM)
A. baumannii; Acinetobacter baumannii, ROB08705, CAMHB, MCPs read at 80% inhibition
  MIC: 0.25 µg/mL (≈ 0.316 µM)
A. baumannii; Acinetobacter baumannii, ROB08706, CAMHB, MCPs read at 80% inhibition
  MIC: 0.5 µg/mL (≈ 0.632 µM)
A. baumannii; Acinetobacter baumannii, ROB08707, CAMHB, MCPs read at 80% inhibition
  MIC: ≤ 0.06 µg/mL
A. baumannii; Acinetobacter baumannii, ROB08708, CAMHB, MCPs read at 80% inhibition
  MIC: 0.12 µg/mL (≈ 0.152 µM)
A. baumannii; Acinetobacter baumannii, ROB08709, CAMHB, MCPs read at 80% inhibition
  MIC: ≤ 0.06 µg/mL
A. baumannii; Acinetobacter baumannii, ROB08710, CAMHB, MCPs read at 80% inhibition
  MIC: 0.12 µg/mL (≈ 0.152 µM)
S. aureus ATCC 29213; Study LGC296813
  RO7223280 MIC 100%: >64 µg/mL
S. aureus ATCC 29213; Study LGC299544
  RO7223280 MIC 100%: >64 µg/mL
S. aureus ATCC 29213; Study LGC308175
  RO7223280 MIC 100%: >64 µg/mL
S. aureus ATCC 29213; Staphylococcus aureus, ATCC29213
  MIC: > 64 µg/mL
